In US20060234378A1, “Molecular switch regulating neurogenesis” (The Salk Institute For Biological Studies, priority 2005, published 2006):

Test system: NeuroD1 and NeuroD2 genes
Assay: RT PCR of NeuroD genes after TSA and 5AzaC treatment of adult hippocampal neural stem cells
Type: cell-based, rat
Conditions: 5 nM for 2 days
Protocol: To determine whether either of these mechanisms contributed to repression of the NeuroD promoter, adult hippocampal neural stem cells were treated with either an HDAC inhibitor, trichostatin A (TSA), or with the de-methylation reagent 5′-aza-cytidine (5AzaC). Total RNA was extracted from cells that had been treated with 5 nM TSA for 2 days and with 3 μM 5AzaC for 4 days. RT PCR analysis was performed with specific primers for NeuroD1 (SEQ ID NOs:7 and 8) and NeuroD2 (SEQ ID NOs:9 and 10) genes and a control gene, GAPDH (SEQ ID NOs:3 and 4).

SMILES: CC(/C=C/C(=O)NO)=C\[C@@H](C)C(=O)c1ccc(N(C)C)cc1 [TSA, trichostatin A]
- expression of GAPDH (control gene): no effects
- endogenous expression levels of mRNAs of NeuroD1 and NeuroD2 (compared with untreated progenitor cultures): increased
